Assay results taken from ChEMBL document CHEMBL1121935, “Syntheses and activities of antioxidant derivatives of retinoic acids” (1982).

Assays:
Assay type in all cases: functional, Cricetulus griseus
Settings in all cases: Epithelial cell
[1] = test system: Cricetinae gen. sp.; test: In vitro inhibitory activity tested for reverse keratinization of epithelial cells in hamster trachael organ assay at 10E-9 M concentration; (Activity culture/total culture 419/474)
[2] = test system: Cricetinae gen. sp.; test: In vitro inhibitory activity tested for reverse keratinization of epithelial cells in hamster trachael organ assay at 10E-9 M concentration; (Activity culture/total culture 2/7)
[3] = test system: Cricetinae gen. sp.; test: In vitro inhibitory activity tested for reverse keratinization of epithelial cells in hamster trachael organ assay at 10E-9 M concentration; (Activity culture/total culture 1/7)
[4] = test system: Cricetinae gen. sp.; test: In vitro inhibitory activity tested for reverse keratinization of epithelial cells in hamster trachael organ assay at 10E-9 M concentration; (Activity culture/total culture 1/6)

CC1=C(/C=C/C(C)=C/C=C/C(C)=C/C(=O)O)C(C)(C)CCC1 [TRETINOIN]
inhibition at 0.001 µM [1]: 88.4%

CCOc1ccc2c(c1)C(C)=CC(C)(C)N2C(=O)/C=C(C)/C=C/C=C(C)/C=C/C1=C(C)CCCC1(C)C
inhibition at 0.001 µM [2]: 28.6%

CC1=C(/C=C/C(C)=C/C=C/C(C)=C/C(=O)Oc2ccc(O)cc2C(C)(C)C)C(C)(C)CCC1
inhibition at 0.001 µM [3]: 14.3%

CC1=C(/C=C/C(C)=C/C=C/C(C)=C/C(=O)Oc2c(C)c(C)c3c(c2C)CC[C@@](C)(CCC[C@H](C)CCC[C@H](C)CCCC(C)C)O3)C(C)(C)CCC1
inhibition at 0.001 µM [4]: 16.7%

CC1=C(/C=C/C(C)=C/C=C/C(C)=C/C(=O)Oc2ccc(O)c(C(C)(C)C)c2)C(C)(C)CCC1
inhibition at 0.001 µM [4]: 16.7%
